In US20110165115A1, “SYNERGISTIC ATTRACTANTS FOR PESTIFEROUS SOCIAL INSECTS” (STERLING INTERNATIONAL INC., priority 2010, published 2011):

How the values were obtained:
[1] = test system: D. arenaria; test: Field trapping Experiment 1, Rescue W•H•Y traps; assay type: in vivo, Dolichovespula arenaria; conditions: Exp 1; HIPV added to WHY attractant in the top chamber, or WHY alone
Description: (§1) Three field trapping experiments were carried out during late July to early August 2009, in residential and woody areas around Spokane, Wash., USA, using the newly marketed Rescue® W•H•Y traps (www.rescue.com). As used herein, the W•H•Y trap is a trap in accordance with the description of United States Patent Application Publication No. 2009/0151228. The W•H•Y trap has a top chamber and a bottom chamber. The top chamber is baited with two attractants—one of which is a solid contained in a vial (2-methyl-1-butanol) and the other a liquid mixed with water (acetic acid), herein referred to as the W•H•Y top attractant. The bottom chamber is baited with a liquid attractant (heptyl butyrate) poured onto a cotton pad, herein referred to as the W•H•Y bottom attractant. Separation of the top and bottom attractants (otherwise antagonistic to each other when released from the same chamber) in two chambers was a design feature of this trap and creates two focal attraction sources from one trap for different species of wasps, hornets, and yellowjackets. Traps were hung 1.5-2.0 m above the ground on either the fence or tree branches ca. 5 m apart within each trap line. For each trapping experiment, six sets of traps were deployed with their initial trap positions within each set being randomized. To minimize positional effects and obtain more replications, wasp collections and trap re-randomization were carried out when ≧10-20 wasps were caught in the best trap. Each replicate lasted several days depending on wasp flight activity. Captured wasps were removed from the traps and kept in the zip-bags before taking back to the laboratory for recording of the species, gender status, and catch.
Experiment 1 (Jul. 22-30, 2009) tested ten synthetic HIPV candidates [(E)-2-hexenal, (Z)-3-hexen-1-ol, (Z)-3-hexenyl acetate, cis-ocimene, linalool, methyl salicylate, geranyl acetate, trans-β-caryophyllene, trans-β-farnesene and (E)-4,8-dimethyl-1,3,7-nonatriene], including several paper wasp EAD-active compounds (see FIG. 2 for details), to determine their potential synergistic effect on the Rescue® W•H•Y trap attractants to paper wasps, yellowjackets, and hornets. Experiment 2 (Aug. 5-13, 2009) tested behavioral responses of the paper wasps and yellowjackets to the Rescue® W•H•Y trap attractants (top attractants only) and its combination with (E)-4,8-dimethyl-1,3,7-nonatriene, one of the EAD-active and behaviorally significant HIPVs, in a dose-response fashion. Experiment 3 (Aug. 5-13, 2009) was conducted to determine the potential behavioral activity of different doses of (E)-4,8-dimethyl-1,3,7-nonatriene alone. The individual (or different doses) HIPVs were loaded into either polyethylene bags or centrifuge tube type of dispensers, and released from the top of the W•H•Y trap chamber. W•H•Y trap attractants (both top and bottom or top only) alone and water (top chamber only) were included in the test as positive and blank controls, respectively. The dispenser types, loading and release rates of the tested semiochemicals are described in Tables 1, 2 and 3.
(§2) Trap catch data were converted to proportion (P) of total captured wasps within each replicate. Data were then transformed by arcsin√P to meet the assumptions of normality and homogeneity of variances for ANOVA. Means were compared by ANOVA followed by the Ryan-Einot-Gabriel-Welsh (REGW) multiple Q test (SPSS 16.0 for Windows) at α=0.05.

[2] = test system: V. consobrina; assay type: in vivo, Vespula consobrina; conditions: Exp 1; HIPV added to WHY attractant in the top chamber, or WHY alone
Description: as §1, with “catch. […]” for “catch.”
as §2

[3] = test system: Polistes dominulus worker antennae; test: GC-EAD of cherry branch aeration samples
Description: Lapin cherry branches with severely damaged cherries and leaves and undamaged or slightly damaged branches were collected from a cherry orchard at Creston, Canada, on Jul. 29, 2009, and were transported to the Sterling International, Inc. lab (Spokane, Wash.) on the same day and kept at 4° C. before aerations. Headspace volatiles from the cherry branches (damaged or undamaged) were sampled by a battery operated pump and a high density polyacetate oven bag (48.2×59.6 cm Reynolds® Oven Bag; Richmond, Va., USA) enclosure with one activated charcoal filter tube in the air inlet, on Jul. 30, 2009. The volatiles in the enclosure were trapped on one Porapak Q tube (50/80 mesh; 30 mg in Teflon tube: 3 mm×35 mm) for 2.5 hr (airflow 300 ml/min) and extracted with 1 ml redistilled pentane. Aeration samples of the cherry branches (damaged or undamaged/slightly damaged) were injected (3 μl) splitless into a Varian CP-3800 GC equipped with a polar column (HP-INNOWax; 30 m×0.53 mm×1.0 μm film thickness; […] Helium was used as the carrier gas, and the injector and detector temperatures were 250° C. and 300° C., respectively. Column temperature was 50° C. for 1 min, rising to 240° C. at 10° C./min, and then held for 10 min. The outlet for the EAD was held in a humidified air stream flowing at 0.5 m/sec over the antennal preparation. EAD recordings were made using silver wire-glass capillary electrodes filled with Beadle-Ephrussi Ringer on freshly cut antennae. The antennal signals were stored and analyzed on a PC equipped with a serial IDAC interface box and the program EAD ver. 2.5 (Syntech, Hilversum, The Netherlands). […] (See FIG. 2.) The same chemicals were also tested on beneficial insect antennae from Chrysopa oculata, Myrmeleon crudelis, Podisus maculiventris, and Hippodarnia convergens. (See […] active peaks in the aeration samples were identified by GC-MS on an HP 6890 GC series coupled with an HP 5973 Mass Selective Detector using the same type of GC column and conditions as described above. Compounds were identified by comparison of retention times with those of authentic standards and with mass spectra of standards.

[4] = aeration of severely damaged cherry branches, at current release rates
[5] = aeration of undamaged or slightly damaged cherry branches

## C=C/C=C(\C)CCC=C(C)C [(E)-4,8-dimethyl-1,3,7-nonatriene]
[1]
  Total Yellowjacket Catches D. arenaria: 7
[2]
  Total Yellowjacket Catches V. consobrina: 0
[3]; [4]
  EAD response of worker antennae: significant EAD response

## COC(=O)c1ccccc1O [Methyl Salicylate, methyl salicylate]
[1]
  Total Yellowjacket Catches D. arenaria: 4
[2]
  Total Yellowjacket Catches V. consobrina: 2
[3]; [4]
  EAD response of worker antennae: did not elicit significant EAD-responses

## CC/C=C\CCO [Z-3-Hexanol, (Z)-3-hexen-1-ol]
[1]
  Total Yellowjacket Catches D. arenaria: 1
[2]
  Total Yellowjacket Catches V. consobrina: 0
[3]; [4]
  EAD response of worker antennae: did not elicit significant EAD-responses
[3]; [5]
  EAD response of worker antennae: strongly responded

## CC/C=C\CCOC(C)=O [Z-3-Hexenyl Acetate, (Z)-3-hexenyl acetate]
[1]
  Total Yellowjacket Catches D. arenaria: 8
[2]
  Total Yellowjacket Catches V. consobrina: 1
[3]; [4]
  EAD response of worker antennae: did not elicit significant EAD-responses
[3]; [5]
  EAD response of worker antennae: strongly responded
